Measured values: publication PMC9004346, “Development of small cyclic peptides targeting the CK2α/β interface” (Chemical Communications (Cambridge, England), 2022)
Like-named read-outs stand apart in the source and are kept apart here.

## CC4RLYGFKCC4
Crosslinker bond, 29-membered ring, TCEP, dichloroacetone, phosphate buffer pH 8/DMF 1:2, 1.3 mM
  ring closure, yield after HPLC: 8%

## CC6RLYGFKCC6
Crosslinker bond, 27-membered ring, TCEP/K2CO3, CH2I2/NEt3, H2O/THF, 3.7 mM
  ring closure, yield after HPLC: 19%

## CC7RLYGFKCC7
Crosslinker bond, 33-membered ring, N-(4,6-divinylpyrimidin-2-yl)-N-methylglycine, phosphate buffer pH 8/DMF, 1.6 mM
  ring closure, yield after HPLC: 17%

## CC8RLYGFKWC8
Thioether bond, 27-membered ring, I2, H2O/MeCN, 0.46 mM
  ring closure, yield after HPLC: 25%

## GXC1RLYGFKWHXC1GG
Crosslinker bond, 39-membered ring, 3,5-diethynylbenzoic acid/CuSO4/THPTA/Na ascorbate, tBuOH/H2O 1:1, 0.48 mM
  ring closure, yield after HPLC: 2%

## JC2RLYGFKXC2
Triazole bond, 27-membered ring, CuSO4/Na ascorbate/DIEA, H2O, 1.3 mM
  ring closure, yield after HPLC: 19%

## JC3RLYGFKXC3
Triazole bond, 26-membered ring, [Cp*RuCl]4 30 mol%, tBuOH/H2O 1:1, 0.61 mM
  ring closure, yield after HPLC: 3%
